The record followed here is patent publication US20250263426A1, “PDE4B INHIBITOR AND USE THEREOF” (Xizang Haisco Pharmaceutical Co., Ltd., priority 2022, published 2025).

In assay [1] the test system is human peripheral blood mononuclear cells (TNF-α release). In words: Inhibition of LPS-induced TNF-α release from human peripheral blood mononuclear cells in vitro. Type of assay: cell-based. Particulars: 4 h; for Emax: read-out: Max inhibition (%). On the procedure:
5. Detection of Inhibitory Activity of Compounds on the Release of Tumor Necrosis Factor-α (TNF-α) from Human Peripheral Blood Mononuclear Cells Induced by Lipopolysaccharide (LPS) In Vitro
The concentration of hPBMC cells was adjusted to 0.25×10^6 cells/mL with RPMI1640 medium and inoculated into a 96-well plate in an amount of 50000 cells per well. […] Incubation was carried out for 4 h in an incubator at 37° C. and 5% CO2. The cell supernatant was collected, and the content of TNF-α in the supernatant sample was detected by human TNF-α Elisa quantitative test kit (Sino Biological, Cat #KIT10602). The IC50 value was calculated using GraphPad Prism software.

Assay [2] deals with PDE4B2 (Homo sapiens (Human), UniProt Q07343). In words: Effect of compounds on PDE4B2 activity (fluorescence polarization kit).
Sequence of PDE4B2 (Q07343 other isoform, or with tags, fused parts or gaps): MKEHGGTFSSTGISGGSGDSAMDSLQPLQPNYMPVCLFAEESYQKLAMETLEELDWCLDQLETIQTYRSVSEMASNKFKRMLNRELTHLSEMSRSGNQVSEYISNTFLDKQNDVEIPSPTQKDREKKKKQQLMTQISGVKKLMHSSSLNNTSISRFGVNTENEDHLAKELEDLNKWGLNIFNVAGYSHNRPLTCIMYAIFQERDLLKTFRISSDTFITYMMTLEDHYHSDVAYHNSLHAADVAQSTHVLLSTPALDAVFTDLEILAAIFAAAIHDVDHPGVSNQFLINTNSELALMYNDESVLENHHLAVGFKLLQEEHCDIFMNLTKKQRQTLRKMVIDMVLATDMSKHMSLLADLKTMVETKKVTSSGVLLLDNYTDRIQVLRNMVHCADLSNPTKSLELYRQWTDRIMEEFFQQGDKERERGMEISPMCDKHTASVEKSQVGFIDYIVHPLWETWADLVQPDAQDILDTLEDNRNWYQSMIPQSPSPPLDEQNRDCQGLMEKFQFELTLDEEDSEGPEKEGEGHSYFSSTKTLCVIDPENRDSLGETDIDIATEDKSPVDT
Excerpt: [formula] • I∥ (S535): fluorescence intensity in parallel direction • I⊥ (P535): fluorescence intensity in perpendicular direction • G: G factor=1
The target of assay [3] is PDE4D2 (Homo sapiens (Human), UniProt Q08499). In words: Effect of compounds on PDE4D2 activity (fluorescence polarization kit). The class given is biochemical. The method, then: FP was usually represented by mP value.
Sequence of PDE4D2 (Q08499 303-809, change not shown): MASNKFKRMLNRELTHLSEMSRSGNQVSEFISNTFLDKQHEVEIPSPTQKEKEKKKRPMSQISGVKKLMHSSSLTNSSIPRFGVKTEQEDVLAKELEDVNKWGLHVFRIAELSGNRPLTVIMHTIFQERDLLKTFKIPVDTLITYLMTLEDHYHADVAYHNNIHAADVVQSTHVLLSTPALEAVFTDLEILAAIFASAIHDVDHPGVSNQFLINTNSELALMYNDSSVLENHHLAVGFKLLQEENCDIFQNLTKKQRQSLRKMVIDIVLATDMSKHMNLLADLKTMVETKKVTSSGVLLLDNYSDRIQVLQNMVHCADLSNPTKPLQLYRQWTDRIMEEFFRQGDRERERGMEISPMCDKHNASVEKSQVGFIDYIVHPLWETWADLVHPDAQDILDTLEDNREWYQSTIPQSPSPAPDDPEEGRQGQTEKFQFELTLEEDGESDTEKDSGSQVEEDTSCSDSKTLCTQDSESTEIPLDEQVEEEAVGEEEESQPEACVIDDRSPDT
[formula] • I∥ (S520): fluorescence intensity in parallel direction • I⊥ (P520): fluorescence intensity in perpendicular direction • G: G factor=1
[formula] • mP(sample): mP of the test compound in a reaction well • mP(negative control): mP in the negative control well • mP(positive control): mP in the positive control well
According to the calculated inhibition rate at each concentration, the IC50 value of each compound was calculated by GraphPad Prism 8 software.
In general terms: Fluorescence polarisation rises when a labelled molecule tumbles more slowly, as on binding a larger partner.

Where [4] appears, read: Homo sapiens, PBMC, read-out: Re IC50.
The mark [5] stands for this setting: Homo sapiens, PBMC, hPBMC, 100 ng/mL LPS.
[6] abbreviates: relative IC50, hPBMC, 100 ng/mL LPS, read-out: Re IC50.
The mark [7] stands for this setting: Homo sapiens, PBMC, read-out: Re IC50 (nM).

Like-named read-outs stand apart in the source and are kept apart here.

For `C#Cc1cnc(C2=CCN(c3nc4c(c(NC5(COC(N)=O)CCC5)n3)[S@+]([O-])CC4)CC2)nc1` [Compound 35], the IC50 in assay [1] (setting [4]), in assay [2] and in assay [3] was less than 10 nM each time. In addition, in assay [1] (setting [5]), the Emax is 85.1%.
Take `C#Cc1cnc(C2=CCN(c3nc4c(c(Nc5cccc(F)c5)n3)[S@+]([O-])CC4)CC2)nc1` [Compound 36-1]: the “Max inhibition (%)” value in assay [1] (hPBMC, 100 ng/mL LPS) is recorded as 73.52%. Also, the IC50 in assay [1] (setting [6]), in assay [2] (read-out: PDE4B2 IC50) and in assay [3] was less than 10 nM each time.
As for `C#Cc1cnc(C2=CCN(c3nc4c(c(NC5(CN/C(C)=N/C#N)CCC5)n3)[S@+]([O-])CC4)CC2)nc1` [Compound 39], the IC50 in assay [1] (setting [4]), in assay [2] and in assay [3] was less than 10 nM throughout. Moreover, the Emax in assay [1] (setting [5]) was 71.1%.
For `C#Cc1ccc(N2CCN(c3nc4c(c(NC5(CO)CCC5)n3)[S+]([O-])CCC4)CC2)cc1` (stereo not shown) [Compound 41], the Emax in assay [1] (Homo sapiens, PBMC) was 69.8%. The results for the IC50 in assay [1] (setting [7]), in assay [2] and in assay [3] were 10 to 50 nM, less than 10 nM and 10 to 50 nM, respectively.
For `NC(=O)OCC1(Nc2nc(N3C[C@H]4CC(c5ccc(Cl)cc5)=C[C@H]4C3)nc3c2[S@+]([O-])CC3)CCC1` [Compound 44], the “Max inhibition (%)” value in assay [1] (hPBMC, 100 ng/mL LPS) is given as 77.27%. The IC50 was 10 to 50 nM in assay [1] (setting [6]), less than 10 nM in assay [2] (read-out: PDE4B2 IC50) and 10 to 50 nM in assay [3].
As for `NC(=O)OCC1(Nc2nc(N3CC=C(c4ncc(Cl)cn4)CC3)nc3c2[S@+]([O-])CC3)CCC1` [Compound 48], the IC50 in assay [1] (setting [4]) was 10 to 50 nM; in assay [2], less than 10 nM; in assay [3], less than 10 nM. Further, the Emax in assay [1] (setting [5]) is 73.9%.
`NC(=O)OCC1(Nc2nc(N3CC=C(c4nc5ccccc5o4)CC3)nc3c2[S@+]([O-])CC3)CCC1` [Compound 49]: the “Max inhibition (%)” value in assay [1] (hPBMC, 100 ng/mL LPS) worked out at 73.46%. Also, the IC50 in assay [1] (setting [6]), in assay [2] (read-out: PDE4B2 IC50) and in assay [3] was less than 10 nM in each case.
As to `Cc1coc(C2=CCN(c3nc4c(c(NC5(COC(N)=O)CCC5)n3)[S@+]([O-])CC4)CC2)n1` [Compound 50], the IC50 in assay [1] (setting [4]), in assay [2] and in assay [3] was less than 10 nM in each case. Moreover, in assay [1] (setting [5]), the Emax came to 72.1%.
With `NC(=O)OCC1(Nc2nc(N3CC=C(c4ncc(Cl)cn4)CC3)nc3c2[S@+]([O-])CC3)CCCC1` [Compound 52], the IC50 in assay [1] (setting [4]) was 10 to 50 nM; in assay [2], less than 10 nM; in assay [3] it was less than 10 nM.
Take `NC(=O)OCC1(Nc2nc(N3CC=C(c4nc5ccccc5s4)CC3)nc3c2[S@+]([O-])CC3)CCC1` [Compound 56]: the IC50 in assay [1] (setting [4]), in assay [2] and in assay [3] was less than 10 nM in each case.
As to `C#Cc1cnc(C2=CCN(c3nc4c(c(NC5(COC(F)F)CCC5)n3)[S+]([O-])CC4)CC2)nc1` (stereo not shown) [Compound 63], the IC50 in assay [1] (setting [4]) was 10 to 50 nM; in assay [2], less than 10 nM; in assay [3] it was less than 10 nM. In addition, in assay [1] (setting [5]), the Emax was determined as 72.7%.
For the compound `C#Cc1cnc(C2=CCN(c3nc4c(c(NC5(COC)CCC5)n3)[S@+]([O-])CC4)CC2)nc1` [Compound 64], the IC50 in assay [1] (setting [4]) is 10 to 50 nM; in assay [2], less than 10 nM; in assay [3] it was less than 10 nM. For the same compound, the Emax in assay [1] (setting [5]) came to 79.9%.
Turning to `C#Cc1cnc(C2=CCN(c3nc4c(c(NC5(C(C)O)CCC5)n3)[S@+]([O-])CC4)CC2)nc1` (stereo partly shown) [Compound 66], the Emax in assay [1] (Homo sapiens, PBMC) is 67.1%. In addition, the IC50 in assay [1] (setting [7]) was 10 to 50 nM; in assay [2] it was less than 10 nM; in assay [3] it was less than 10 nM.
With `C#Cc1ccc(C2=CCN(c3nc4c(c(NC5(CNC(=O)OC)CCC5)n3)[S@+]([O-])CC4)CC2)nc1` [Compound 69], the IC50 in assay [1] (setting [4]), in assay [2] and in assay [3] was less than 10 nM throughout. Moreover, the Emax in assay [1] (setting [5]) was 70.9%.
Turning to `COC(=O)NCC1(Nc2nc(N3CC=C(c4ncc(Cl)cn4)CC3)nc3c2[S@+]([O-])CC3)CCC1` [Compound 70], the IC50 in assay [1] (setting [4]), in assay [2] and in assay [3] was less than 10 nM throughout. The Emax in assay [1] (setting [5]) amounted to 55.4%.
Take `[O-][S+]1CCc2nc(N3CCN4c5ccccc5OC[C@H]4C3)nc(NC3(CO)COC3)c21` (stereo partly shown) [Compound 72-3]: the “Max inhibition (%)” value in assay [1] (hPBMC, 100 ng/mL LPS) amounted to 65.66%. In addition, the IC50 in assay [1] (setting [6]) was less than 10 nM; in assay [2] (read-out: PDE4B2 IC50), less than 10 nM; in assay [3], 10 to 50 nM.
For the compound `[O-][S+]1CCc2nc(N3CCN4c5ccccc5OC[C@@H]4C3)nc(NC3(CO)COC3)c21` (stereo partly shown) [Compound 72-4], the “Max inhibition (%)” value in assay [1] (hPBMC, 100 ng/mL LPS) turned out to be 62.45%. Further, the IC50 in assay [1] (setting [6]), in assay [2] (read-out: PDE4B2 IC50) and in assay [3] was less than 10 nM in each case.
As for `COC(=O)NCC1(Nc2nc(N3C[C@@H]4CC(c5ncc(Cl)cn5)=C[C@@H]4C3)nc3c2[S@+]([O-])CC3)CCC1` [Compound 73-1], the IC50 in assay [1] (setting [4]), in assay [2] and in assay [3] was less than 10 nM each time. Moreover, in assay [1] (setting [5]), the Emax turned out to be 67.5%.
With `CC(C)(COC(N)=O)Nc1nc(N2CC=C(c3ncc4occc4n3)CC2)nc2c1[S@+]([O-])CC2` [Compound 136], the IC50 in assay [2] and in assay [3] was less than 10 nM throughout.
Take `CC(C)(COC(N)=O)Nc1nc(N2CCC=C(c3ncc(C4CC4)cn3)CC2)nc2c1[S@+]([O-])CC2` [Compound 137]: the IC50 in assay [2] and in assay [3] was 10 to 50 nM each time.
Regarding `CN(C)c1cnc(C2=CCN(c3nc4c(c(NC(C)(C)COC(N)=O)n3)[S@+]([O-])CC4)CC2)nc1` [Compound 138], the IC50 in assay [2] and in assay [3] was 10 to 50 nM throughout.
Regarding `COC(=O)NCC(C)(C)Nc1nc(N2C[C@H]3CC(c4ncc5c(n4)CC5)=C[C@H]3C2)nc2c1[S@+]([O-])CC2` [Compound 139-2], the IC50 in assay [2] (read-out: PDE4B2 IC50) and in assay [3] was 10 to 50 nM each time.
Consider `COC(=O)NCC(C)(C)Nc1nc(N2CCN3c4ncc(C)cc4OC[C@H]3C2)nc2c1[S@+]([O-])CC2` [Compound 141-1], for which the IC50 in assay [2] (read-out: PDE4B2 IC50) and in assay [3] was 10 to 50 nM each time.
Consider `COC(=O)NCC(C)(C)Nc1nc(N2CCN3c4ncc(C)cc4OC[C@@H]3C2)nc2c1[S@+]([O-])CC2` [Compound 141-2], for which the IC50 in assay [2] (read-out: PDE4B2 IC50) was 10 to 50 nM; in assay [3] it was 50 to 100 nM.
In the same order, the values of `Cc1cnc2c(c1)OC[C@@H]1CN(c3nc4c(c(NC(C)(C)COC(N)=O)n3)[S@+]([O-])CC4)CCN21` [Compound 142-1] are less than 10 nM and 10 to 50 nM.
For `Cc1cnc2c(c1)OC[C@H]1CN(c3nc4c(c(NC(C)(C)COC(N)=O)n3)[S@+]([O-])CC4)CCN21` [Compound 142-2] the same measures were 10 to 50 nM and 10 to 50 nM.
In the same order, the values of `CCOc1cnc2c(c1)OC[C@@H]1CN(c3nc4c(c(NC(C)(C)COC(N)=O)n3)[S+]([O-])CC4)CCN21` (stereo partly shown) [Compound 146-1] are 10 to 50 nM and less than 10 nM.
Regarding `CCOc1cnc2c(c1)OC[C@H]1CN(c3nc4c(c(NC(C)(C)COC(N)=O)n3)[S+]([O-])CC4)CCN21` (stereo partly shown) [Compound 146-2], the IC50 in assay [2] (read-out: PDE4B2 IC50) and in assay [3] was 10 to 50 nM in each case.
Regarding `CCOc1cnc2c(c1)OC[C@@H]1CN(c3nc4c(c(NC(C)(C)CNC(=O)OC)n3)[S@+]([O-])CC4)CCN21` [Compound 147-1], the IC50 in assay [2] (read-out: PDE4B2 IC50) lay in the range of 10 to 50 nM; in assay [3], 50 to 100 nM.
With `CCOc1cnc2c(c1)OC[C@H]1CN(c3nc4c(c(NC(C)(C)CNC(=O)OC)n3)[S@+]([O-])CC4)CCN21` [Compound 147-2], the IC50 in assay [2] (read-out: PDE4B2 IC50) lay within 10 to 50 nM; in assay [3], 50 to 100 nM.

The IC50 is the concentration that inhibits the measured activity by half.
